Experimental data as given in patent US11744907B2, “Predicting peptide receptor radiotherapy using a gene expression assay” (Liquid Biopsy Research LLC, priority 2017, dated 2023).

How the values were obtained:
[1] = tested on: neuroendocrine tumor (NET); assay: Progression-free survival of PPQ-negative subjects after PRRT or PRRT plus chemotherapy; format: in vivo, human; conditions: PPQ predicted non responders; standard 4 cycle PRRT
Text: Clinical outcomes of patients that were identified by the PPQ to be a predicted non-responder to PRRT therapy were further analyzed. […] Thus, the PPQ can be used to identify patients that require additional agents (e.g. immune-related treatments or chemotherapy) to be used with PRRT and thereby optimize outcomes.

midgut NETs = midgut NETs progressive on standard octreotide LAR treatment; cited from earlier work

## C[C@@H](O)[C@H](NC(=O)[C@@H]1CSSC[C@H](NC(=O)[C@@H](Cc2ccccc2)NC(=O)CN2CCN(CC(=O)[O-])CCN(CC(=O)[O-])CCN(CC(=O)[O-])CC2)C(=O)N[C@@H](Cc2ccc(O)cc2)C(=O)N[C@H](Cc2c[nH]c3ccccc23)C(=O)N[C@@H](CCCCN)C(=O)N[C@@H]([C@@H](C)O)C(=O)N1)C(=O)O.[177Lu+3] [Lutathera, ^177Lu-DOTA-Tyr^3-Thr^8-octreotide]
[1]
  median PFS: 9 months
Midgut NETs
  efficacy versus high-dose octreotide: more effective than high-dose octreotide somatostatin analogs
